In general, MIC refers to the lowest concentration that inhibits growth of the organism. Read a low MIC as greater potency. The LD50 is the dose at which mortality reaches 50%.

Values after ≈ are worked out from the molar mass of the structure shown. “Also recorded” adds a separate entry of the source. Like-named read-outs stand apart in the source and are kept apart here.

The values below come from patent publication US4659741A, “β-[2-(halogenobenzyl)-phenoxy]-ethylamine derivatives” (Institut de Recherches Chimiques et Biologiques Appliquees …, priority 1983, dated 1987).

The test system of series [1] is Staphylococcus aureus London CIP A.238. Kind of series: Minimal inhibiting concentration (MIC), Gram+ strain (Table IV). The series is classed as cell-based. The following applies: for MIC: Staphylococcus aureus. An excerpt:
(§1) A certain number of compounds according to the invention are given non-restrictively by way of illustration in tables I, II and III hereinafter. The minimal inhibiting concentrations (MIC) of these compounds vis-a-vis a Gram+bacteria (Staphylococcus aureus London) a Gram-bacteria (Escherichia coli) and a fungus (Candida albicans) are given hereinafter in table IV. In table V are tabulated the MIC values of two compounds according to the invention which are particularly interesting [compound B 673 (example 26) and compound B 674 (example 29)] vis-a-vis several strains.
(§2) The strains used are those of the catalogues of the "Institut Pasteur" of Paris (abbreviation: CIP), the "Centre International de Distribution de Souches et d'Information sur les Types Microbiens de Lausanne" (abbreviation: La) and the "American Type Culture Collection" (abbreviation: ATCC).
G^+ = Gram^+ strain: Staphylococcus aureus London CIP A.238

The subject of series [2] is Escherichia coli CIP 54.8. Kind of series: Minimal inhibiting concentration (MIC), Gram- strain (Table IV). It counts as cell-based. The settings on record: CIP54.
From the text: as §1, §2
G^- = Gram^- strain: Escherichia coli CIP 54.8

Series [3] has as its system Candida albicans CIP 1180. Briefly: Minimal inhibiting concentration (MIC), fungus strain (Table IV). It counts as cell-based. The following applies: for MIC C: Candida albicans CIP 1180; for MIC: Candida albicans, CIP1180, Candida albicans CIP 1180.
From the text: as §1, §2
C = fungus strain: Candida albicans CIP 1180

A short description of series [4]: Toxicity, LD-50 mice (Table VI). The following applies: for LD50: mouse, in vivo.

On to `CCN(CC)CCOc1ccc(C)cc1Cc1ccc(Cl)cc1Cl` [Example 1], for which the MIC in series [1] came to 12.5 µg/mL (≈ 34.1 µM); in series [2], 50 µg/mL (≈ 136 µM).
For `CCc1ccc(OCCN(CC)CC)c(Cc2ccc(Cl)cc2Cl)c1` [Example 2], the “MIC C” value in series [3] (listed as Ex 2) was found to be 64 μ g/ml. Further, the “MIC G^+” value in series [1] (listed as Ex 2) is 64 μ g/ml.
Regarding `CCN(CC)CCOc1ccc(C(C)C)cc1Cc1ccc(Cl)cc1Cl` [Example 3], it took 8 µg/mL (≈ 20.3 µM) to inhibit growth in series [3] (MIC). Further, the “MIC G^+” value in series [1] (listed as Ex 3) turned out to be 16 μ g/ml.
Consider `CCC(C)c1ccc(OCCN(CC)CC)c(Cc2ccc(Cl)cc2Cl)c1` (stereo not shown) [Example 4], for which, in series [3] (listed as Ex 4), the “MIC C” value was determined as 16 μ g/ml. Besides, the “MIC G^+” value in series [1] (listed as Ex 4) is on record as 32 μ g/ml.
For the molecule `CCN(CC)CCOc1ccc(C(C)(C)C)cc1Cc1ccc(Cl)cc1Cl` [Example 5, β-[2-(2,4-dichlorobenzyl)-4-tertiobutylphenoxy]-N,N-diethyl-ethylamin], the MIC in series [1] was found to be 50 µg/mL (≈ 122 µM).
On to `CCN(CC)CCOc1ccc(C(C)(C)CC)cc1Cc1ccc(Cl)cc1Cl` [Example 6, β-[2-(2,4-dichlorobenzyl)-4-(1,1-dimethylpropyl)-phenoxy]-N,N-diethylethylamine], for which the MIC in series [3] is 16 µg/mL (≈ 37.9 µM); in series [1], 8 µg/mL (≈ 18.9 µM).
Turning to `CCCCc1ccc(OCCN(CC)CC)c(Cc2ccc(Cl)cc2Cl)c1` [Example 7], the MIC in series [3], in series [1] and in series [2] was 64 µg/mL (≈ 157 µM) each time.
For `CCCCCCc1ccc(OCCN(CC)CC)c(Cc2ccc(Cl)cc2Cl)c1` [Example 8], the MIC in series [3], in series [1] and in series [2] was 64 µg/mL (≈ 147 µM) throughout.
For the molecule `CCN(CC)CCOc1ccc(C(C)(C)CC(C)(C)C)cc1Cc1ccc(Cl)cc1Cl` [Example 9], 25 µg/mL (≈ 53.8 µM) was the least that counted as inhibitory in series [1] (MIC).
As to `CC(C)c1ccc(OCCN(C)C)c(Cc2ccc(Cl)c(Cl)c2)c1` [Example 10], the figures for the MIC in series [1] and in series [2] were 16 µg/mL (≈ 43.7 µM) and 64 µg/mL (≈ 175 µM), respectively.
On to `CCc1ccc(OCCN(CC)CC)c(Cc2ccc(Cl)cc2Cl)c1` [Example 11], for which the “MIC C” value in series [3] (listed as Ex 11) is on record as 8 μ g/ml. Further, the “MIC G^+” value in series [1] (listed as Ex 11) was 8 μ g/ml. The spasmolytic properties result in “Spasmolytic properties” was “beneficial spasmolytic properties”.
As for `CCN(CC)CCOc1ccc(C(C)C)cc1Cc1ccc(Cl)cc1Cl` [Example 12], the “MIC C” value in series [3] (listed as Ex 12) is on record as 4 μ g/ml. Further, the “MIC G^+” value in series [1] (listed as Ex 12) is 4 μ g/ml. Also, the spasmolytic properties result in the series “Spasmolytic properties” (listed as B 805) is recorded as “beneficial spasmolytic properties; also recorded: The most interesting compound, as spasmolytic agent”.
As for `CCC(C)c1ccc(OCCN(CC)CC)c(Cc2ccc(Cl)cc2Cl)c1` (stereo not shown) [Example 13], the “MIC C” value in series [3] (listed as Ex 13) was determined as 0.5 μ g/ml. Moreover, the “MIC G^+” value in series [1] (listed as Ex 13) is 8 μ g/ml. For the same molecule, the spasmolytic properties result in the series “Spasmolytic properties” was “beneficial spasmolytic properties”.
For the molecule `CCN(CC)CCOc1ccc(C(C)(C)CC)cc1Cc1ccc(Cl)cc1Cl.Cl` [Example 14, β-[2-(2,4-dichlorobenzyl)-4-(1,1-dimethylpropyl)-phenoxy]-N,N-diethylethylamine hydrochloride], the MIC in series [3] was 4 µg/mL; in series [1] it was 8 µg/mL; in series [2], 64 µg/mL. For the same molecule, the spasmolytic properties result in “Spasmolytic properties” is given as “beneficial spasmolytic properties”.
Take `CCN(CC)CCOc1ccc(C(C)(C)CC(C)(C)C)cc1Cc1ccc(Cl)cc1Cl` [Example 15]: the “MIC G^+” value in series [1] (listed as Ex 15) amounted to 16 μ g/ml. For the same molecule, in “Spasmolytic properties”, the spasmolytic properties result is recorded as “beneficial spasmolytic properties”.
As to `CCC(C)(C)c1ccc(OCC[N+](C)(CC)CC)c(Cc2ccc(Cl)cc2Cl)c1.[I-]` [Example 21, N,N-diethyl-N-{2-[2-(2,4-dichlorobenzyl)-4-(1,1-dimethylpropyl)-phenoxy]-ethyl}-N-methylammonium iodide], the MIC in series [3] was found to be 0.5 µg/mL; in series [1], 0.125 µg/mL; in series [2] it was 8 µg/mL.
For `CC[N+](C)(CC)CCOc1ccc(C(C)(C)CC(C)(C)C)cc1Cc1ccc(Cl)cc1Cl` [Example 22], the MIC in series [3] is 0.25 µg/mL; in series [1], 0.125 µg/mL; in series [2], 64 µg/mL.
`CCCC[N+](CC)(CC)CCOc1ccc(C(C)(C)CC)cc1Cc1ccc(Cl)cc1Cl.[Br-]` [Example 23, N,N-diethyl-N-{2-[2-(2,4-dichlorobenzyl)-4-(1,1-dimethylpropyl)-phenoxy]-ethyl}-N-butylammonium bromide] had an LD50 in series [4] above 1000 mg/kg. Further, the minimal inhibitory concentration (MIC) was 0.25 µg/mL in series [3], 0.06 µg/mL in series [1] and 4 µg/mL in series [2].
Consider `CCCC[N+](CC)(CC)CCOc1ccc(C(C)(C)CC(C)(C)C)cc1Cc1ccc(Cl)cc1Cl` [Example 24], for which the MIC in series [3] is 1 µg/mL; in series [1] it was 0.015 µg/mL; in series [2] it was 16 µg/mL.
In turn, `CCc1ccc(OCC[N+](CC)(CC)Cc2ccccc2)c(Cc2ccc(Cl)cc2Cl)c1` [Example 27] had an LD50 in series [4] of 850 mg/kg. The MIC in series [3] was 0.5 µg/mL; in series [1], 0.125 µg/mL; in series [2], 8 µg/mL.
Consider `CC[N+](CC)(CCOc1ccc(C(C)C)cc1Cc1ccc(Cl)cc1Cl)Cc1ccccc1` [Example 28], for which the MIC turned out to be 0.25 µg/mL in series [3], 0.015 µg/mL in series [1] and 8 µg/mL in series [2].
In turn, `CCC(C)(C)c1ccc(OCC[N+](CC)(CC)Cc2ccccc2)c(Cc2ccc(Cl)cc2Cl)c1` [Example 30] had an LD50 in series [4] above 1000 mg/kg. Further, the MIC was determined as 0.25 µg/mL in series [3], 0.004 µg/mL in series [1] and 4 µg/mL in series [2].
For `CCCCc1ccc(OCC[N+](CC)(CC)Cc2ccccc2)c(Cc2ccc(Cl)cc2Cl)c1` [Example 31] the same measures were above 1000 mg/kg, 0.125 µg/mL, 0.031 µg/mL and 4 µg/mL.
With `CCCCCCc1ccc(OCC[N+](CC)(CC)Cc2ccccc2)c(Cc2ccc(Cl)cc2Cl)c1` [Example 32], the minimum inhibitory concentration (MIC) in series [3] worked out at 0.5 µg/mL; in series [1], 0.125 µg/mL; in series [2] it was 16 µg/mL.
As for `CC[N+](CC)(CCOc1ccc(C(C)(C)CC(C)(C)C)cc1Cc1ccc(Cl)cc1Cl)Cc1ccccc1` [Example 33], the MIC in series [3] is 1 µg/mL; in series [1], 0.03 µg/mL.
In series [4], `CCCCCCCCCCCCCCCC[N+](C)(C)C` [Example A-2, cetrymonium chloride, reference compound] yielded an LD50 of 750 mg/kg.
For “benzalkonium chloride [Example A-1, reference compound]”, the LD-50 mice in series [4] (mice, route not given) came out at 550 mg/kg.
